Reference: patent publication US20150190407A1, “METHODS FOR TREATMENT OF POSTOPERATIVE INFLAMMATION WITH REDUCED INTRAOCULAR PRESSURE” (Insite Vision Incorporated, priority 2014, published 2015)
Read-outs that look alike come from different tables or passages of the source.

Legend:
[1] = cited from earlier work
[2] = after 8 days of treatment for inflammation following ocular surgery; cited from earlier work
[3] = Release from the vehicle in the rabbit eye, measured in aqueous humor; type: in vivo; details: in the ophthalmically acceptable vehicle
Method: The viscous gels that result upon administration of the aqueous suspensions of the present disclosure to the eye have residence times in the eye ranging from about 2 to about 12 hours, e.g., from about 3 to about 6 hours. The active ingredients contained in these ophthalmically acceptable vehicles are released from the gels at rates that depend on such factors as the active ingredient itself and its physical form, the extent of drug loading and the pH of the system, as well as on any drug delivery adjuvants, such as ion exchange resins compatible with the ocular surface, which can also be present.

C[C@@H]1C[C@H]2[C@@H]3CCC4=CC(=O)C=C[C@]4(C)[C@@]3(F)[C@@H](O)C[C@]2(C)[C@@]1(O)C(=O)CO [dexamethasone]
rise in IOP (published data) ([1]; administered without the benefit of a sustained release vehicle): 3-4 mmHg

C[C@@H]1C[C@H]2[C@@H]3CCC4=CC(=O)C=C[C@]4(C)[C@@]3(F)[C@@H](O)C[C@]2(C)[C@@]1(O)C(=O)COP(=O)(O)O [dexamethasone phosphate]
increase of intraocular pressure ([1]; after one week): 1-2 mmHg
increase of intraocular pressure ([1]; after six weeks): 5-6 mmHg
increase of intraocular pressure ([1]; after two weeks): 3-4 mmHg
median intraocular pressure vs placebo (saline 0.9%) [2]: significantly higher

CC(=O)[C@@]1(O)CC[C@H]2[C@@H]3C[C@H](C)C4=CC(=O)C=C[C@]4(C)[C@@]3(F)[C@@H](O)C[C@@]21C [fluorometholone]
release rates in the rabbit eye, as measured by fluorometholone contained in the aqueous humor [3]: in excess of four hours
